# Experimental data as given in publication PMC9908026 (Science Advances, 2023).
# Target: T1, EcGlyRS ((αβ)2 orphan GlyRS, full-length; EcGlyRS_FL) (Escherichia coli, UniProt P00960)
# T1 construct: gene glyQ; full-length α and β subunits co-expressed in E. coli BL21(DE3); C-terminal His6 tag on β, no cleavage told; (αβ)2 heterotetramer; with Glycine--tRNA ligase beta subunit
# T1 sequence (P00960 1-303): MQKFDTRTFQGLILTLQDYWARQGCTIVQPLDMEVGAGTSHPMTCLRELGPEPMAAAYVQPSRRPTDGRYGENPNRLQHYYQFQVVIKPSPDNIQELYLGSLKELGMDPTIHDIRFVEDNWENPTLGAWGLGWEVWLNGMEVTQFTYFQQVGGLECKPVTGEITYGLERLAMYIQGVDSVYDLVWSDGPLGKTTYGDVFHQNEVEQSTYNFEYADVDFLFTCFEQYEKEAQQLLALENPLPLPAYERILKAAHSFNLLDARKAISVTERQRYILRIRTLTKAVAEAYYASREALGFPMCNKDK
# T1 sequence (P00961 2-689 partner): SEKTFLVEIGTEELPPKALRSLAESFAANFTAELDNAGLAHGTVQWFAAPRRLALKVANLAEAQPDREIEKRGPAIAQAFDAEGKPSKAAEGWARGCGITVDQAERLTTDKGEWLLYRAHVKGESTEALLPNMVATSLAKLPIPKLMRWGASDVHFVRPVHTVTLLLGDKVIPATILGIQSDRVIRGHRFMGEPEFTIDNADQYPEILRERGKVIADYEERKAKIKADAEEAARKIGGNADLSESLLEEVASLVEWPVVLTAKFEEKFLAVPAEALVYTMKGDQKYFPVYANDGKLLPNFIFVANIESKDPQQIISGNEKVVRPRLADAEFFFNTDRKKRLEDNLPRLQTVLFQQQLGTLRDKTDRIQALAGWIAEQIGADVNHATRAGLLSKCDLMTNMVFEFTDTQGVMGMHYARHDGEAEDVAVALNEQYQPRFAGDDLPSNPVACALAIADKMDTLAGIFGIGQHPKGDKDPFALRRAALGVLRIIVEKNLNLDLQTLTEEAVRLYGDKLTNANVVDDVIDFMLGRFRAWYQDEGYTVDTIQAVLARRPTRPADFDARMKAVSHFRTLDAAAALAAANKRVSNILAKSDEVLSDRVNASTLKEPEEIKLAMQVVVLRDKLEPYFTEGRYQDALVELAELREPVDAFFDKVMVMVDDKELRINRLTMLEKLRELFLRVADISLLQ
# Assay: ATP consumption assay (Kinase-Glo luminescence)
# Assay type: biochemical
# Settings: 4 μM ATP, 500 μM glycine, tRNA-Gly(GCC) 0.25 mg/ml, 40 mM MgCl2, pH 7.5, room temperature; 50 nM enzyme
structure (smiles),measurement,value
Nc1ncnc2c1ncn2[C@@H]1O[C@H](COP(=O)(O)OP(=O)(O)OP(=O)(O)O)[C@@H](O)[C@H]1O [ATP],ATP consumption assay (Kinase-Glo luminescence),An ATP consumption assay was used to evaluate the aminoacylation activity of EcGlyRS on tRNA^Gly
